Measured values: patent US6958318B2, “Recombinant bacterial cells for delivery of PNP to tumor cells” (The UAB Research Foundation, priority 1993, dated 2005)
Values joined by “and” are separate entries in the source; they are usually repeats but may differ in a detail not shown here. Equal values may be shown once. “Also recorded” adds a separate entry of the source. Read-outs that look alike come from different tables or passages of the source. Marks after values point to notes of the source that are not given here.

Experiments:
[1] = tested on: 16/C breast cancer cells; assay: Bystander killing, mixed wild type and PNP-transduced 16/C cells; assay type: cell-based, murine; settings: 20 μg/ml
[2] = tested on: T-84 colon carcinoma cells; assay: Killing of T-84 cells transfected with SV-PNP (DOTAP/DOPE); assay type: cell-based, human; settings: 30 μg/ml, day 6
From the text: To eliminate possible toxicity associated with the non-hydrolyzable cationic lipid component of the LipofectinJ, an alternative liposome transfection vehicle was used in the killing experiments. A liposome vehicle consisting of a 1:1 (weight/weight) mixture of the cationic lipid DOTAP (1,2-dioleoyloxy-3-(trimethylammonium)-propane) and the neutral lipid DOPE (dioleoyl-phosphatidylethanolamine) (Avanti Polar Lipids) display transfection properties similar to LipofectinJ, but with less toxicity (data not shown). DOTAP/DOPE liposomes were prepared by mixing 0.5 mg of DOTAP and 0.5 mg of DOPE and evaporating the chloroform solvent. Following the addition of 500 μl of cyclohexane, the mixture was placed on dry ice and lyophilized. One ml of sterile water was added to the powdered lipids and the solution was vortexed every 5 minutes for 30 minutes. T-84 or Mel-1 cells were seeded at 30% confluency in 24-well plates and allowed to grow overnight. […]
In cells that received the PNP or control plasmids, the media was changed two days after transfection and MeP-dR (6-methylpurine-deoxyriboside) added to the appropriate wells to a final concentration of 30 μg/ml. […] Two days later (day 6), the cells were washed once with PBS, resuspended, and counted in a 20% solution of trypan blue reagent (Trypan Blue Stain 0.4%, Gibco-BRL, Gaithersburg, Md.) using a hemacytometer. […]

[3] = target: T1, E. coli PNP (Escherichia coli, UniProt P0ABP8); assay type: biochemical
T1 sequence (P0ABP8 2-239): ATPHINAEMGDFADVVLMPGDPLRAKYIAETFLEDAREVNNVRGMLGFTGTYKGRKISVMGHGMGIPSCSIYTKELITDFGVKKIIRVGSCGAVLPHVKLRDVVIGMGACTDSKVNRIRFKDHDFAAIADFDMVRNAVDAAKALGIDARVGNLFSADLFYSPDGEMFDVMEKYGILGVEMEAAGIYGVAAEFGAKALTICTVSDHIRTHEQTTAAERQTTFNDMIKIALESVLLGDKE

[4] = tested on: 16/C-PNP tumors; assay: E. coli PNP-transduced 16/C tumors in B6C3F1 mice; assay type: in vivo
Description: Transduced 16/C cells were implanted in mice by subcutaneous injection of approximately 10^6 cells harvested from the cultures of stably transduced 16/C cells described above. The mice were examined visibly for tumor growth and those with developing tumors were maintained. To prepare mice for use in the in vivo experiments, the tumors were removed from mice with significant tumor growth and cut into 30-60 mg pieces. One 30-60 mg piece of the tumor was subcutaneously implanted into the subaxillary region of each female B6C3F1 mouse. The tumors were allowed to develop and mice with tumors of 100 mm^3 were used.
Six mice per group with established PNP-transduced 16/C tumors were treated with aqueous control solution, MeP-dR or F-ara AMP, as above. […] (Table III, 16/C-PNP treatment.)

[5] = tested on: D54-PNP tumors; assay: E. coli PNP-transduced D54 glioma tumors in nude mice; assay type: in vivo
Description: Female athymic nude mice (nu/nu) were implanted sc with 2×10^7 cells of either D54 parental tumor cells (D54-wt) or D54 tumor cells that had been transduced with the E. coli PNP (D54-PNP). After the tumors had grown to approximately 150 mg, they were treated ip with either vehicle or 67 mg/kg of MeP-dR (IP) once a day for 3 days (days 6, 7 and 8 after implantation). The tumor sizes were measured twice a week after treatment.
A confirmation experiment was set up exactly as described above, except that animals were treated with two doses of MeP-dR (45 and 67 mg/kg) (FIGS. 10 and 11). The results of this experiment were similar (Table V). There were 8 of 10 complete regressions in mice bearing the D54-PNP tumors that were treated with 67 mg/kg of MeP-dR. In 4 mice the tumors subsequently returned and grew. There were still 4 of 10 tumor-free survivors 60 days after the treatment had stopped. […] There were 2 of 10 complete regressions and 3 partial responses. […] The delay in the time required to double twice due to treatment with MeP-dR was 5 to 6 days in the non-transduced tumors and greater than 24 days in transduced tumors. In this experiment, the growth rate of the D54-PNP tumors was considerably slower than it was in the first experiment. There was no change in the growth rate of the D54-wt tumors. The reason for the slow growth rate of the D54-PNP tumors in this experiment is not known. […] (In other words, if a tumor was too small to measure, it was not included in the average size). This means that the overall tumor regressions in the D54 PNP group are actually much more pronounced than they appear in FIGS. 8-11.

[6] = target: T1, E. coli PNP; assay type: cell-based; settings: 160 μM, 5 day period, E. coli PNP transfected cells
[7] = IP for three days, MeP-dR 100, F-araAMP 500 mg/kg/day

## Cc1ncnc2c1ncn2[C@H]1C[C@H](O)[C@@H](CO)O1 [MeP-dR, 9-(β-D-2-deoxyerythropentofuranosyl)-6-methylpurine]
[1]
  Toxicity to untransduced 16/C cells: not toxic
[1]; mixed culture
  Cell proliferation when as few as 2% of cells express E. coli PNP: completely eliminated cell proliferation; also recorded: Complete abrogation of cellular proliferation
[1]; LDH release assay
  Share of cells expressing PNP required for total population cell killing: 1%
[2]
  Killing of T-84 cells transfected with SV-PNP: susceptible to killing
[3]; non-transduced 16/C and B16 cells
  Background activity in cell free extracts: 0
[3]; transduced 16/C cells, n=6
  E. coli PNP activity in cell free extracts: 10.7 nmoles MeP-dR converted/mg cell protein/hr
[3]; transduced B16 cells, n=2
  E. coli PNP activity in cell free extracts: 2.4 nmoles MeP-dR converted/mg cell protein/hour
[4]; [7]
  Complete Regressions/Total: three of six and 3/6
  Day delay (Treated-control): 5.4 days
  Nonspecific Deaths/Total: 2/6****
[4]; p<0.01
  Delay in time for three tumor doublings, in words: statistically significant delay
[5]; 67 mg/kg, regardless of tumor implanted
  Loss of weight in treated animals: little or no loss of weight
[5]; 45 or 67 mg/kg
  Effect on E. coli PNP expressing D54 tumors, in words: caused regression
[5]; Table IV, 67 mg/kg
  Days Delay (T-C): >39 days
  Doubling time: >56
  Nonspecific Deaths/Total: 0/6
  Regressions Partial: 0/6
[5]; Table IV, 67 mg/kg IP once a day for three days, 67 mg/kg
  Regressions Complete: 6 of 6 and 6/6
[5]; Table IV, 67 mg/kg, followed 65 days, 67 mg/kg
  Tumor-free Survival: Four and 4/6
[5]; Table V, 45 mg/kg
  Days Delay (T-C): >24 days
  Doubling time: >54
  Nonspecific Deaths/Total: 0/10
  Regressions Partial: 3 and 3/10
  Tumor-free Survival: no tumor-free survivors and 0/10
[5]; Table V, 45 mg/kg IP once a day for three days, 45 mg/kg
  Regressions Complete: 2 of 10 and 2/10
[5]; Table V, 67 mg/kg
  Days Delay (T-C): >25 days
  Doubling time: >55
  Nonspecific Deaths/Total: 1/10
  Regressions Partial: 1/10
[5]; Table V, 67 mg/kg IP once a day for three days, 67 mg/kg
  Regressions Complete: 8 of 10 and 8/10
[5]; Table V, 67 mg/kg, 60 days after treatment stopped, 67 mg/kg
  Tumor-free Survival: 4 of 10 and 4/10
[5]; previous studies
  Activity against D54 glioma tumors expressing the E. coli PNP gene: good activity
[5]; transduced tumors, 45 and 67 mg/kg
  Delay in the time required to double twice: greater than 24 days
[6]
  MeP-dR converted to MeP in culture medium: More than 75%
